From patent US12692249B2, “WDR5 inhibitors and modulators” (Vanderbilt University, priority 2019, dated 2026)
Read-outs that look alike come from different tables or passages of the source.

Assays:
WDR5 = WDR5 (Homo sapiens, UniProt P61964); assay: TR-FRET competition binding assay, displacement of 10mer-Thr-FAM MLL peptide probe from His-tagged WDR5; details: WDR5-His tag (residues 24-334) 2 nM; 10mer-Thr-FAM 150 nM; 60 min, room temperature; read-out: Ki for Inhibition of WDR5 by TR-FRET assay
Protocol: Time Resolved-Fluorescence Energy Transfer Competition Assay […] Excess 10mer-Thr-FAM probe was utilized with His-tagged WDR5 in conjunction with a commercial anti-His antibody containing a Terbium label. The LanthaScreenTM Elite Tb-anti-HIS Antibody from ThermoFisher Scientific was used for this purpose. […] The 10mer-Thr-FAM probe when bound to WDR5 will undergo a FRET interaction with the Tb-anti-HIS and emit at 520 nm. […] WDR[…] 10[…] used at 150 nM. […] A source plate is prepared using an Echo Liquid Handler, which distributes the compounds to the assay plate (white, flat-bottom; OptiPlate) in a 10-point, 5-fold dilution schemes with a top concentration of 5 μM, in a final volume of 20 μL. […] The final DMSO concentration in each well of the assay plate is 1% or lower. The plate is covered, shielded from light, and incubated for 60 minutes at room temperature with rocking. 10mer-Thr-FAM and Anti-His terbium antibody fluorescence is then measured on a Biotek Cytation 3 at excitation wavelength of 340 nm, and emission wavelengths of 495 nm and 520 nm. […] TR-FRET signal is plotted and IC50 and Ki values are calculated according to the formula of Wang Z. FEBS Lett (1996) 3, 245. Ki=[I]50/([L]50/Kd+[P]0/Kd+1) where [I]50 is the concentration of the free inhibitor at 50% inhibition, [L]50 is the concentration of the free labeled ligand at 50% inhibition, [P]0 is the concentration of the free protein at 0% inhibition, Kd represents the dissociation constant of the FITC-MLL or 10mer-Thr-FAM probe for WDR5. Total fluorescence is also measured, to rule out compounds that are inherently fluorescent or able to act as quenchers in the assay. TR-FRET Binding Assay

[1] = system: MV4:11 human cancer cell lines; assay: Cellular viability / anti-proliferative assay, CellTiter-Glo, 5 day protocol; format: cell-based; details: Homo sapiens, MV4-11, 120 h, read-out: GI50 on cellular proliferation of MV4:11 human cancer cell lines
Procedure, shortened: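 MV-4-11 cells in IMDM with 10% FBS, 200 cells/well, exposed 5 days to 22 two-fold dilutions from 30 μM, final DMSO 0.3%. Viability read by CellTiter-Glo luminescence; GI50 from sigmoidal dose-response fit, mean of at least two replicates.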

[2] = MV4:11 cells, 5 day incubation, CellTiter-Glo, mean of at least two replicates

Structure (SMILES): COc1cnc2cc(C)cc(N3CCc4c(cc(Cn5ccnc5N)cc4-c4cn(C)nc4C(F)(F)F)C3=O)c2c1 [Example 221, 7-((2-Amino-1H-imidazol-1-yl)methyl)-2-(3-methoxy-7-methylquinolin-5-yl)-5-(1-methyl-3-(trifluoromethyl)-1H-pyrazol-4-yl)-3,4-dihydroisoquinolin-1(2H)-one]
- Ki (WDR5): 0.024 nM
- GI50 [1, 2]: < 20 nM

Structure (SMILES): COc1cc(C2=CCOCC2)c2nc(C)cc(N3CCc4c(cc(Cn5ccnc5)cc4-c4cn(C)nc4C(F)(F)F)C3=O)c2c1 [Example 151, 7-((1H-imidazol-1-yl)methyl)-2-(8-(3,6-dihydro-2H-pyran-4-yl)-6-methoxy-2-methylquinolin-4-yl)-5-(1-methyl-3-(trifluoromethyl)-1H-pyrazol-4-yl)-3,4-dihydroisoquinolin-1(2H)-one]
- Ki (WDR5): < 0.02 nM
- GI50 [1, 2]: 55 nM

Structure (SMILES): Cc1nccn1Cc1cc2c(c(-c3cn(C)nc3C(F)(F)F)c1)CCN(C1CCOc3ccc(Br)cc31)C2=O (stereo not drawn) [Example 61, 2-(6-Bromochroman-4-yl)-7-((2-methyl-1H-imidazol-1-yl)methyl)-5-(1-methyl-3-(trifluoromethyl)-1H-pyrazol-4-yl)-3,4-dihydroisoquinolin-1(2H)-one]
- Ki (WDR5): 0.052 nM
- GI50 [1, 2]: 31 nM

Structure (SMILES): CCc1cc(C#N)c2nccc(N3CCc4c(cc(Cn5ccnc5)cc4-c4cn(C)nc4C(F)(F)F)C3=O)c2c1 [Example 204, 4-(7-((1H-Imidazol-1-yl)methyl)-5-(1-methyl-3-(trifluoromethyl)-1H-pyrazol-4-yl)-1-oxo-3,4-dihydroisoquinolin-2(1H)-yl)-6-ethylquinoline-8-carbonitrile]
- Ki (WDR5): < 0.02 nM
- GI50 [1, 2]: 22 nM

Structure (SMILES): CCc1cc(C(=O)NCCOC)c2nc(C)cc(N3CCc4c(cc(Cn5ccnc5)cc4-c4cn(C)nc4C(F)(F)F)C3=O)c2c1 [Example 190, 4-(7-((1H-Imidazol-1-yl)methyl)-5-(1-methyl-3-(trifluoromethyl)-1H-pyrazol-4-yl)-1-oxo-3,4-dihydroisoquinolin-2(1H)-yl)-6-ethyl-N-(2-methoxyethyl)-2-methylquinoline-8-carboxamide]
- Ki (WDR5): < 0.02 nM
- GI50 [1, 2]: < 20 nM

Structure (SMILES): COc1cc(C2CCOCC2)c2nc(C)cc(N3CCc4c(cc(Cn5ccnc5)cc4-c4cn(C)nc4C(F)(F)F)C3=O)c2c1 [Example 165, 7-((1H-Imidazol-1-yl)methy)-2-(6-methoxy-2-methyl-8-(tetrahydro-2H-pyran-4-yl)quinolin-4-yl)-5-(1-methyl-3-(trifluoromethyl)-1H-pyrazol-4-yl)-3,4-dihydroisoquinolin-1(2H)-one]
- Ki (WDR5): 0.042 nM
- GI50 [1]: 129 nM

Structure (SMILES): COc1ccc2c(c1)C(N1CCc3c(cc(Cn4ccnc4)cc3-c3cn(C)nc3C(F)(F)F)C1=O)CCC2 (stereo not drawn) [Example 66, 7-((1H-Imidazol-1-yl)methyl)-2-(7-methoxy-1,2,3,4-tetrahydronaphthalen-1-yl)-5-(1-methyl-3-(trifluoromethyl)-1H-pyrazol-4-yl)-3,4-dihydroisoquinolin-1(2H)-one]
- Ki (WDR5): 0.062 nM
- GI50 [1, 2]: 84 nM

Structure (SMILES): COc1cnc2c(c1)c(N1CCc3c(cc(Cn4ccnc4)cc3-c3cn(C)nc3C(F)(F)F)C1=O)cn2C [Example 83]
- Ki (WDR5): < 0.02 nM
- GI50 [1, 2]: 45 nM

Structure (SMILES): CCc1cc(N2CCN(C)CC2)c2nccc(N3CCc4c(cc(Cn5ccnc5)cc4-c4cn(C)nc4C(F)(F)F)C3=O)c2c1 [Example 37, 7-((1H-Imidazol-1-yl)methyl)-2-(6-ethyl-8-(4-methylpiperazin-1-yl)quinolin-4-yl)-5-(1-methyl-3-(trifluoromethyl)-1H-pyrazol-4-yl)-3,4-dihydroisoquinolin-1(2H)-one]
- Ki (WDR5): < 0.02 nM
- GI50 [1, 2]: < 20 nM

Structure (SMILES): CCn1cc(-c2cc(Cn3ccnc3C)cc3c2CCN(c2cn(C)c4ccc(OC)cc24)C3=O)c(C(F)(F)F)n1 [Example 86, 5-(1-Ethyl-3-(trifluoromethyl)-1H-pyrazol-4-yl)-2-(5-methoxy-1-methyl-1H-indol-3-yl)-7-((2-methyl-1H-imidazol-1-yl)methyl)-3,4-dihydroisoquinolin-1(2H)-one]
- Ki (WDR5): < 0.02 nM
- GI50 [1, 2]: 107 nM

Structure (SMILES): CCn1cc(-c2cc(Cn3ccnc3)cc3c2CCN([C@H]2CCOc4ccc(OC)cc42)C3=O)c(C(F)(F)F)n1 [Example 75, (S)-7-((1H-Imidazol-1-yl)methyl)-5-(1-ethyl-3-(trifluoromethyl)-1H-pyrazol-4-yl)-2-(6-methoxychroman-4-yl)-3,4-dihydroisoquinolin-1(2H)-one]
- Ki (WDR5): < 0.02 nM
- GI50 [1, 2]: 23 nM

Structure (SMILES): COc1cc(COC2CC2)c2nccc(N3CCc4c(cc(Cn5ccnc5)cc4-c4cn(C)nc4C(F)(F)F)C3=O)c2c1 [Example 167, 7-((1H-Imidazol-1-yl)methyl)-2-(8-(cyclopropoxymethyl)-6-methoxyquinolin-4-yl)-5-(1-methyl-3-(trifluoromethyl)-1H-pyrazol-4-yl)-3,4-dihydroisoquinolin-1(2H)-one]
- Ki (WDR5): 0.034 nM
- GI50 [1]: 106 nM

Structure (SMILES): Cn1cc(-c2cc(Cn3ccnc3)cc3c2CCN(c2cccc4ncc(C5CC5)cc24)C3=O)c(C(F)(F)F)n1 [Example 130, 7-((1H-Imidazol-1-yl)methyl)-2-(3-cyclopropylquinolin-5-yl)-5-(1-methyl-3-(trifluoromethyl)-1H-pyrazol-4-yl)-3,4-dihydroisoquinolin-1(2H)-one]
- Ki (WDR5): 0.051 nM
- GI50 [1]: 218 nM

Structure (SMILES): CCc1cc(C(=O)NC2CN(C(=O)c3cscn3)C2)c2nccc(N3CCc4c(cc(Cn5ccnc5)cc4-c4cn(C)nc4C(F)(F)F)C3=O)c2c1 [Example 228, 4-(7-((1H-Imidazol-1-yl)methyl)-5-(1-methyl-3-(trifluoromethyl)-1H-pyrazol-4-yl)-1-oxo-3,4-dihydroisoquinolin-2(1H)-yl)-6-ethyl-N-(1-(thiazole-4-carbonyl)azetidin-3-yl)quinoline-8-carboxamide]
- Ki (WDR5): < 0.02 nM
- GI50 [1, 2]: < 20 nM

Structure (SMILES): COc1ccc2ccnc(N3CCc4c(cc(Cn5ccnc5C)cc4-c4cn(C)nc4C(F)(F)F)C3=O)c2c1 [Example 5, 7-Methoxy-7′-((2-methyl-1H-imidazol-1-yl)methyl)-5-(1-methyl-3-(trifluoromethyl)-1H-pyrazol-4-yl)-3′,4-dihydro-1′H-[1,2′-biisoquinolin]-1′-one]
- Ki (WDR5): 0.034 nM
- GI50 [1, 2]: 83 nM

Structure (SMILES): CCn1cc(N2CCc3c(cc(Cn4ccnc4)cc3-c3cn(C)nc3C(F)(F)F)C2=O)c2cc(OC)cnc21 [Example 84, 7-((1H-Imidazol-1-yl)methyl)-2-(1-ethyl-5-methoxy-1H-pyrrolo[2,3-b]pyridin-3-yl)-5-(1-methyl-3-(trifluoromethyl)-1H-pyrazol-4-yl)-3,4-dihydroisoquinolin-1(2H)-one]
- Ki (WDR5): < 0.02 nM
- GI50 [1, 2]: 39 nM

Structure (SMILES): COc1cc(C2CCN(C)CC2)c2nc(C)cc(N3CCc4c(cc(Cn5ccnc5)cc4-c4cn(C)nc4C(F)(F)F)C3=O)c2c1 [Example 157, 7-((1H-Imidazol-1-yl)methyl)-2-(6-methoxy-2-methyl-8-(1-methylpiperidin-4-yl)quinolin-4-yl)-5-(1-methyl-3-(trifluoromethyl)-1H-pyrazol-4-yl)-3,4-dihydroisoquinolin-1(2H)-one]
- Ki (WDR5): < 0.02 nM
- GI50 [1, 2]: < 20 nM

Structure (SMILES): CCn1cc(-c2cc(Cn3ccnc3)cc3c2CCN(c2cccc4ncc(OC)cc24)C3=O)c(C(F)(F)F)n1 [Example 52, 7-((1H-Imidazol-1-yl)methyl)-5-(1-ethyl-3-(trifluoromethyl)-1H-pyrazol-4-yl)-2-(3-methoxyquinolin-5-yl)-3,4-dihydroisoquinolin-1(2H)-one]
- Ki (WDR5): 0.028 nM
- GI50 [1, 2]: 62 nM
